According to paper PMC5540273, “Progress towards a public chemogenomic set for protein kinases and a call for contributions” (PLoS ONE, 2017):

Tests used:
Experiment in all cases: KINOMEscan competition binding
EPHA1 = target: T1, EPHA1 (Homo sapiens, UniProt P21709); details: read-out: %Inh EPHA1
T1 sequence (P21709 26-976): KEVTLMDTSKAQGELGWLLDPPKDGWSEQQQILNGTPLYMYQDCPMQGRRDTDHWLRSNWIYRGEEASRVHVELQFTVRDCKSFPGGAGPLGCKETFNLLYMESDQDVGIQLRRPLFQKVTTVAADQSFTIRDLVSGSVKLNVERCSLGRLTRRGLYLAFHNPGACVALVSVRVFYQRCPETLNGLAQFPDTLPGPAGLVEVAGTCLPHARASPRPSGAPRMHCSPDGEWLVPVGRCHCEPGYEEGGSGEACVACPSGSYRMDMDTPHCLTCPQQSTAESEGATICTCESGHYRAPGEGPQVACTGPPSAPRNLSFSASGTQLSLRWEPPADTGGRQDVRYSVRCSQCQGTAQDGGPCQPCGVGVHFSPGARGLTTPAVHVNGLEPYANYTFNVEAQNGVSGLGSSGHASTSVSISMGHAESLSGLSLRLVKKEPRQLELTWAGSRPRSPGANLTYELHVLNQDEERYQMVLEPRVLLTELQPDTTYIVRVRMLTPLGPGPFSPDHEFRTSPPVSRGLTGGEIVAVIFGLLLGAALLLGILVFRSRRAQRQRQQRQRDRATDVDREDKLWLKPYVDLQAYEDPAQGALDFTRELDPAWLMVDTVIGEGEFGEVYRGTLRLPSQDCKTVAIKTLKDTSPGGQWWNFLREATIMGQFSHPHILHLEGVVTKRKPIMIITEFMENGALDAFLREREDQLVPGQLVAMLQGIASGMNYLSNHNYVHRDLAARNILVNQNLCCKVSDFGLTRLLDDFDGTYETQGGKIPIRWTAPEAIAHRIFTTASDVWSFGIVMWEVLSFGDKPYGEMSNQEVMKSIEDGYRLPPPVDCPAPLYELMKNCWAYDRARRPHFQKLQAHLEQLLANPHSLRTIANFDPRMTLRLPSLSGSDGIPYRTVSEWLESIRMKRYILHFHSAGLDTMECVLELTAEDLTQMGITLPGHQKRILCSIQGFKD

DAPK1 = DAPK1 (Homo sapiens, UniProt P53355); details: read-out: %Inh DAPK1
ANKK1 = target: T2, ANKK1 (Homo sapiens, UniProt Q8NFD2); details: read-out: %Inh ANKK1
T2 sequence (Q8NFD2 1-765): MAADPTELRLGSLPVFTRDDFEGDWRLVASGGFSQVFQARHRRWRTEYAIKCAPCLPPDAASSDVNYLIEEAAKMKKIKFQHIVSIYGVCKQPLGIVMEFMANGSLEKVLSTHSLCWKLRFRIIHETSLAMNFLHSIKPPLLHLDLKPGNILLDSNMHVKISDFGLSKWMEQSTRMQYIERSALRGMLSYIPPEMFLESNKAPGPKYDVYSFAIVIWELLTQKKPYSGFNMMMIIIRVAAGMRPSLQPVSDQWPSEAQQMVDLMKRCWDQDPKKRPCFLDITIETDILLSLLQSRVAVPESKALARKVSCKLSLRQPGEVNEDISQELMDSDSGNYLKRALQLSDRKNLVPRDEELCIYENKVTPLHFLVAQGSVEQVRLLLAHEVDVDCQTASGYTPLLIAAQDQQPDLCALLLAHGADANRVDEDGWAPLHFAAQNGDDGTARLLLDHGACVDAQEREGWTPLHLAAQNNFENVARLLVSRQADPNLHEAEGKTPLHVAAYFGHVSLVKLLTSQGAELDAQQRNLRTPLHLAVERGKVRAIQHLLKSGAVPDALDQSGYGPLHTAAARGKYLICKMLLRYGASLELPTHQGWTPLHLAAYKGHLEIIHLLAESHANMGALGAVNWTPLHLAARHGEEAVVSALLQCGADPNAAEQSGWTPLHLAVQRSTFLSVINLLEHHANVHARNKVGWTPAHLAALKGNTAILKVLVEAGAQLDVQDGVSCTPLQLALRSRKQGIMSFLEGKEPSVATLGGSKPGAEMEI

ARK5 = target: T3, ARK5 (Homo sapiens, UniProt O60285); details: read-out: %Inh ARK5
T3 sequence (O60285 1-661): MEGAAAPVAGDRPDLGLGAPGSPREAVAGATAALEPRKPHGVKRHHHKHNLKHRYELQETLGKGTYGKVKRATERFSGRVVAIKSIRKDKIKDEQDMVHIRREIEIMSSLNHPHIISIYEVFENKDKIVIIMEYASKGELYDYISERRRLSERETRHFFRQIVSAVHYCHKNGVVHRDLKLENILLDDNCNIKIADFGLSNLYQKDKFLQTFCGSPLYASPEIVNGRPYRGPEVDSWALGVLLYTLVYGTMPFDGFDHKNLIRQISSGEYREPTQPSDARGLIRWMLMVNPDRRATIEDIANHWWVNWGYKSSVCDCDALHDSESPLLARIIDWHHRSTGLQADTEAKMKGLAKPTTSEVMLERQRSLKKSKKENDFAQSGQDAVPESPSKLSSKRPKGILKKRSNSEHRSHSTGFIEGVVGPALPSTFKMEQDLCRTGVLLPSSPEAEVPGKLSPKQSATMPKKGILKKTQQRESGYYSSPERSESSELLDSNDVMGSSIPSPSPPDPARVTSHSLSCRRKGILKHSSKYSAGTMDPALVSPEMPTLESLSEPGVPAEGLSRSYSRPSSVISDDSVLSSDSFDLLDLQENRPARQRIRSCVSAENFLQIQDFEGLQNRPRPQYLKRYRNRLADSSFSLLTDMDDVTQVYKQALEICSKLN

DAPK1, sequence (P53355 whole entry): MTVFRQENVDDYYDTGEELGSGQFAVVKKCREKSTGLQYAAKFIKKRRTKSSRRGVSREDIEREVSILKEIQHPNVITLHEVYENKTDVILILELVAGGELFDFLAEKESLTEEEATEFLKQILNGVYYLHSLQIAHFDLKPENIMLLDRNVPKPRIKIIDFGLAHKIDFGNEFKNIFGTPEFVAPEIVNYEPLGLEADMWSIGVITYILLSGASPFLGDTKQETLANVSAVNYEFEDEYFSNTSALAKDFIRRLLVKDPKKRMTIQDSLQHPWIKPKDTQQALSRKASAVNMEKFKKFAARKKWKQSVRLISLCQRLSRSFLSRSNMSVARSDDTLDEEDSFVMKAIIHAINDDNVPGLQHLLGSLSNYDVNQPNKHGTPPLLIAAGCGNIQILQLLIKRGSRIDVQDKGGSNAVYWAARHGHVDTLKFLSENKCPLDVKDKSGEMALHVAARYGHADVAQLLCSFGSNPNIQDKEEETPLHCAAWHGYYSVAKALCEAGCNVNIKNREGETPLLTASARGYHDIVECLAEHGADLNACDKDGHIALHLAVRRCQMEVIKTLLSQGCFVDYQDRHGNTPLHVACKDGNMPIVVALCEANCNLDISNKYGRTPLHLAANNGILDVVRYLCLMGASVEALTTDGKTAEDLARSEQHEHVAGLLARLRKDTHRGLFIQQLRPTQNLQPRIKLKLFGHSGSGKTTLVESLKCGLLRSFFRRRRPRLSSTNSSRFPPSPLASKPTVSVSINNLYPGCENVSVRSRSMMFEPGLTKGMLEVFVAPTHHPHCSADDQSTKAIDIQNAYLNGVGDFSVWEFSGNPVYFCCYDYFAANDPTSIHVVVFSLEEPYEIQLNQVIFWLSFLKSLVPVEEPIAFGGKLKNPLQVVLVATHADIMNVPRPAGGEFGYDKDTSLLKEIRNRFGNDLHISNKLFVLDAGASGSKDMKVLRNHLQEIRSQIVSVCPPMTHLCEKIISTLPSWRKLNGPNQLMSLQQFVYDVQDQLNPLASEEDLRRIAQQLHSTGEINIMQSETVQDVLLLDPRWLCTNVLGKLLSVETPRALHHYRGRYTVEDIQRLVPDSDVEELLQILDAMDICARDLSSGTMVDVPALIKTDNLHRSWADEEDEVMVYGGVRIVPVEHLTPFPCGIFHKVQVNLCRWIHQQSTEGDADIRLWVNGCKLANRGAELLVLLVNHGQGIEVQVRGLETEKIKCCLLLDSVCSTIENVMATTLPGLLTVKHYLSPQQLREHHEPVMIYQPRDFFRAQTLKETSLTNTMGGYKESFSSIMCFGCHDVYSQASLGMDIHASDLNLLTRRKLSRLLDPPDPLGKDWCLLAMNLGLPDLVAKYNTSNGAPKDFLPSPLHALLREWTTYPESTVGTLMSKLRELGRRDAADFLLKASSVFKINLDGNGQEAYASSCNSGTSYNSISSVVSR

SMILES	inhibition at 1 µM (EPHA1)	inhibition at 1 µM (DAPK1)	inhibition at 1 µM (ANKK1)	inhibition at 1 µM (ARK5)
Cn1cc(-c2cnc(N)c3c(-c4ccc5c(c4)CCN5C(=O)Cc4ccccc4)csc23)cn1 [UNC10225012A]	11%	38%	0%	3%
CS(=O)(=O)Cc1ccc(Nc2nccc(-c3c(-c4cccc(NC(=O)C5CCCCC5)c4)nn4ncccc34)n2)cc1 [UNC10225159A]	6%	0%	0%	0%
Cc1ccc(NC(=O)Nc2cccc(C(F)(F)F)c2)cc1 [UNC10225187A]	17%	18%	0%	0%
COc1cccc(OC)c1C(=O)Nc1cccc(-c2nn3ccccc3c2-c2ccnc(Nc3cccc(F)c3)n2)c1 [UNC10225310A]	4%	10%	93.2%	0%
O=c1cc(N2CCOCC2)nc2n(Cc3cccc(Cl)c3Cl)c(C3CC3)nn12 [UNC10225469A]	7%	26%	0%	0%
